# Source: US8901118B2, “Compounds and methods for kinase modulation, and indications therefor” (Plexxikon Inc., priority 2010, dated 2014)
# Experiments:
# CYP3A4(BFC) = CYP3A4(BFC) (Homo sapiens, UniProt P08684); experiment: CYP3A4(BFC) inhibition; type: in vitro ADME; details: CYP3A4, substrate BFC; read-out: Cyp IC50 3A4(BFC)
# Experimental: (§1) CYP (Cytochrome P450) enzymes are the major drug metabolizing enzymes present in the liver. The inhibition of CYP enzyme activity (IC50) for each of CYP1A2, CYP2C19, CYP2C9, CYP2D6, CYP3A4(BFC) and CYP3A4(BQ) is determined for compounds, where inhibition of metabolism of a known substrate leads to a decrease in the fluorescence of the metabolized product. The fluorescence of the product is monitored as a function of compound concentration. Compounds are dissolved in DMSO to a concentration of 100 mM. These are diluted 1 μL into 82 μL of acetonitrile. An 11 μL aliquot of this solution is then added to 204 μL of cofactor mix (1.3% NADPH Regeneration system Solution A, 1.04% NADPH Regeneration system Solution B from BD Biosciences, 5% acetonitrile and 0.05% DMSO). These are then serially diluted 1:1 (160 μL to 160 μL co-factor mix) for a total of 10 points. A 10 μL aliquot of this final mixture is dispensed into 384 well assay plates and incubated for 10 minutes at 37° C. […] Assay plates are incubated at 37° C. (CYP1A2-15 min; CYP2C9-45 min; CYP2C19, 2D6 and 3A4-30 min) and read in a Tecan Safire 2 plate reader (CYP1A2, 2C19 and 3A4 409 ex/460 em; CYP2C9 and 2D6 409 ex/530 em). The signal versus compound concentration is used to determine the IC50. The enzymes and substrates for this assay are obtained from BD Biosciences.
# BCR-NTRK2 BaF3 cells = target: T1, BCR-NTRK2 BaF3 cells (Homo sapiens, UniProt Q16620); experiment: BaF3 BCR-NTRK2 cell proliferation assay (ATPlite); type: cell-based; details: read-out: Inhibition of Cell Proliferation IC50, BCR/BaF3 TrkB
# T1 construct: fused on or other part: P11274 (Breakpoint cluster region protein)
# Experimental: (§2) Compounds are assessed in a variety of cell based assays. For example BaF3 cells engineered with any of BCR-FMS, BCR-KIT, BCR-FLT3, BCR-NTRK1, BCR-NTRK2, and BCR-NTRK3, are used in cell proliferation assays to assess inhibitory activity of Fms, Kit, Flt-3, TrkA, TrkB, and TrkC, respectively. An MV-4-11 (leukemia) cell proliferation assay is used to assess inhibitory activity in Flt-3, and SKNSH (human neuroblastoma) cell proliferation assay is used to assess efficacy of Fms/Trk inhibitors. Additional cells may be assayed similarly to assess the efficacy of Fms/Trk inhibitors, such as MiaPaCa (human pancreatic cancer) and Capan-1 (human pancreatic carcinoma) cells. Reagent and assay conditions are as follows: • BaF3 cells: • Maintained in RPMI containing 10% FBS, 1% PenStrep, 1% NEAA, and 1% L-Glutamine, supplemented with 1 mg/mL G418 and 5% WEHI-CM (or recombinant murine IL-3). • Confluent cells are split 1:50 to 1:100 every 3-4 days. • MV-4-11 cells: • Maintained in Iscove's Modified Dulbecco's Medium containing 10% FBS. • Confluent cells are split 1:4 every 3-4 days. • SKNSH cells: RPMI containing 10% FBS. On day 1, cells are counted, then centrifuged in a conical tube for 5 minutes at 1000 rpm. The supernatant is removed and cells are re-suspended as follows: • BaF3: resuspend in growth media +1 mg/mL G418 (without WEHFIL-3) to 2×10^5 cells/mL. • MV-4-11: resuspend in growth media to 5×10^5 cells/mL. • SKNSH: resuspend in growth media to 2×10^4 cells/mL. The cells are plated (50 μL, 150 μL for SKNSH cells) in each well of a 96-well dish (Corning 3610) and incubated at 37° C. in 5% CO2 overnight, cells plated to a final concentration of cells as follows: • BaF3: 10,000 cells per well. • MV-4-11: 25,000 cells per well. • SKNSH: 3,000 cells per well. On day 2, compound at a maximum concentration of 5 mM is serially diluted 1:3 for a total of 8 point titration with DMSO as a control. A 1 μL aliquot of each dilution point is added to 249 μL growth media and 50 μL is added to a well containing cells, providing 10 μM compound for the maximum concentration point. The cells are incubated for 3 days at 37° C. in 5% CO2. For SKNSH cells, a 0.75 μL aliquot of appropriate dilution in DMSO is added to 150 μL of cells. On day 5, ATPlite 1 step Luminescence Assay System (Perkin Elmer #6016739) is brought to room temperature along with the cell cultures. ATPlite is added to each well as follows: • BaF3: 25 μL per well. • MV-4-11: 40 μL per well. • SKNSH: 20 μL per well. The cells are incubated at room temperature for 10 minutes, then luminescence is read on Safire reader. The measured luminescence correlates directly with cell number, such that the reading as a function of compound concentration is used to determine the IC50 value.
# (§3) It is understood that the results of these assays may vary as assay conditions are varied. Inhibition levels determined under the conditions described herein represent a relative activity for the compounds tested under the specific conditions employed. The cell based assays are likely to show variability due to the complexity of the system and the sensitivity thereof to any changes in the assay conditions. […] Results for compounds that are tested and show substantially no inhibition below the highest tested concentration are represented as “-” in the tables below. In some instances, the compounds were not tested in all of the assays, or assay results were not valid, as indicated by NA in the tables below.
# CYP2D6 = CYP2D6 (Homo sapiens, UniProt P10635); experiment: CYP2D6 inhibition (fluorescent substrate AMMC); type: in vitro ADME; details: read-out: Cyp IC50 2D6
# Experimental: as §1
# BCR-FMS BaF3 cells = target: T2, BCR-FMS BaF3 cells (Homo sapiens, UniProt P07333); experiment: BaF3 BCR-FMS cell proliferation assay (ATPlite); type: cell-based; details: read-out: Inhibition of Cell Proliferation IC50, BCR/BaF3 Fms
# T2 construct: fused on or other part: P11274 (Breakpoint cluster region protein)
# T2 sequence (P07333 582-910): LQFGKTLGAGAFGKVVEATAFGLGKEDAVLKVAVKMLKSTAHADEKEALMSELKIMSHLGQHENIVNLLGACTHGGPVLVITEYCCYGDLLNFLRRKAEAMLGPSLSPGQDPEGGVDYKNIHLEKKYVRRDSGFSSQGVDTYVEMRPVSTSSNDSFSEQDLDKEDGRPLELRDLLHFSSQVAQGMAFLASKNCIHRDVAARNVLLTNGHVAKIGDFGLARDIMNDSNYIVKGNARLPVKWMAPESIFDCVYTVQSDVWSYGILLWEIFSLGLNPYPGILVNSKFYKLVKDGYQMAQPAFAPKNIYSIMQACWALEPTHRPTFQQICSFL
# Experimental: as §2, §3
# T1 sequence (Q16620 538-807): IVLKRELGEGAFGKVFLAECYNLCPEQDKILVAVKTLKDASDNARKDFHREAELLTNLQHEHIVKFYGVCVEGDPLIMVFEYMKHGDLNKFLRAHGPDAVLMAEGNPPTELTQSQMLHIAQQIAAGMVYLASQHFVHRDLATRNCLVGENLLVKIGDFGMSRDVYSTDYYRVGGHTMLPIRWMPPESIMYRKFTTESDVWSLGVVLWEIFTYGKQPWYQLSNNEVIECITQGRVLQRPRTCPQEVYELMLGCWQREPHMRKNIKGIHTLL
# Chain of CYP2D6 (P10635 whole entry): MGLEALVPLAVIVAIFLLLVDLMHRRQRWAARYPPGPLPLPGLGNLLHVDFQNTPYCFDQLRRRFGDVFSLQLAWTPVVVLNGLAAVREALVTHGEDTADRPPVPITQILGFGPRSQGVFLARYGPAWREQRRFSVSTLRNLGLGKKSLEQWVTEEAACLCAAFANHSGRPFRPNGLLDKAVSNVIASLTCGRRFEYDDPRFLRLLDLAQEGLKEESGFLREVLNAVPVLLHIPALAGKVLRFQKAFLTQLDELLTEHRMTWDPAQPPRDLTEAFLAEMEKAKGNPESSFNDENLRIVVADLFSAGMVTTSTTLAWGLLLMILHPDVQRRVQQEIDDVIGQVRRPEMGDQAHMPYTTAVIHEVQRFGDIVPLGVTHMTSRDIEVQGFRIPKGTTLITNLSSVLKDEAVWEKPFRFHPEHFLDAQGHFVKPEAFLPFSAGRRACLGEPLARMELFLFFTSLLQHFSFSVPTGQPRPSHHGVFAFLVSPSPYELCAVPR
# Chain of CYP3A4(BFC) (P08684 whole entry): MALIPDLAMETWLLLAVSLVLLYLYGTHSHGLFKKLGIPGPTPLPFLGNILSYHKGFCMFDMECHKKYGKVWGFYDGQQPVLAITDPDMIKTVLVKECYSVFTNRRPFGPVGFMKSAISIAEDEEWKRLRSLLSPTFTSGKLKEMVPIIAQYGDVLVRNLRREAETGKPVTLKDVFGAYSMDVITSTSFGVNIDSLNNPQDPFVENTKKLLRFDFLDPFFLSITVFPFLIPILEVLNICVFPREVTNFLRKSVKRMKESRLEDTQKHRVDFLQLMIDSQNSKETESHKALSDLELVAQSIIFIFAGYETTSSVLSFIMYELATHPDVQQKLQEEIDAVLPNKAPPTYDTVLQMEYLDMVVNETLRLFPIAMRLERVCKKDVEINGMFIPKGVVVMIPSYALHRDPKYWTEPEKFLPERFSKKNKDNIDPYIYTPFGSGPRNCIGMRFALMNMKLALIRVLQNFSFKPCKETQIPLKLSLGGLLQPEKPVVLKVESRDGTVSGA
Structure (SMILES),IC50 (CYP3A4(BFC)),IC50 (BCR-NTRK2 BaF3 cells),IC50 (CYP2D6),IC50 (BCR-FMS BaF3 cells)
"CCc1ccc(Nc2ccc(C(=O)c3c[nH]c4ncnc(NC(C)C)c34)c(F)n2)cn1 [Compound P-4117, [6-[(6-ethyl-3-pyridyl)amino]-2-fluoro-3-pyridyl]-[4-(isopropylamino)-7H-pyrrolo[2,3-d]pyrimidin-5-yl]methanone]",> 10 µM,< 0.01 µM,> 10 µM,< 0.01 µM
"COc1cncc(Nc2ccc(C(=O)c3c[nH]c4ncnc(NCC(F)(F)F)c34)c(F)n2)c1 [Compound P-4103, [2-fluoro-6-[(5-methoxy-3-pyridyl)amino]-3-pyridyl]-[4-(2,2,2-trifluoroethylamino)-7H-pyrrolo[2,3-d]pyrimidin-5-yl]methanone]",> 10 µM,> 1 µM,> 10 µM,< 0.1 µM
"CCc1ccc(Nc2ccc(C(=O)c3c[nH]c4ncnc(NCC(C)(C)O)c34)c(F)n2)cn1 [Compound P-4064, [6-[(6-ethyl-3-pyridyl)amino]-2-fluoro-3-pyridyl]-[4-[(2-hydroxy-2-methyl-propyl)amino]-7H-pyrrolo[2,3-d]pyrimidin-5-yl]methanone]",> 10 µM,< 0.01 µM,> 10 µM,< 0.1 µM
"COc1ccc(Nc2ccc(C(=O)c3c[nH]c4ncnc(NC5CCCCC5)c34)c(F)n2)cn1 [Compound P-4082, [4-(cyclohexylamino)-7H-pyrrolo[2,3-d]pyrimidin-5-yl]-[2-fluoro-6-[(6-methoxy-3-pyridyl)amino]-3-pyridyl]methanone]",> 10 µM,< 0.01 µM,> 10 µM,< 0.01 µM
"CCc1ccc(Nc2ccc(C(=O)c3c[nH]c4ncnc(NCC5CC5)c34)c(F)n2)cn1 [Compound P-4118, [4-(cyclopropylmethylamino)-7H-pyrrolo[2,3-d]pyrimidin-5-yl]-[6-[(6-ethyl-3-pyridyl)amino]-2-fluoro-3-pyridyl]methanone]",> 10 µM,< 0.01 µM,> 10 µM,< 0.01 µM
"Cc1cnc2[nH]cc(Cc3cnc(Nc4ccc(F)cc4)nc3)c2c1 [Compound P-3010, (4-Fluoro-phenyl)-[5-(5-methyl-1H-pyrrolo[2,3-b]pyridin-3-ylmethyl)-pyrimidin-2-yl]-amine]",> 10 µM,> 10 µM,> 10 µM,< 0.1 µM
"CNc1ncnc2[nH]cc(C(=O)c3ccc(Nc4cncc(OC)c4)nc3F)c12 [Compound P-4108, [2-fluoro-6-[(5-methoxy-3-pyridyl)amino]-3-pyridyl]-[4-(methylamino)-7H-pyrrolo[2,3-d]pyrimidin-5-yl]methanone]",> 10 µM,< 1 µM,< 5 µM,< 0.1 µM
"CC(C)Nc1ncnc2[nH]cc(C(=O)c3ccc(NC4CCCCC4)nc3Cl)c12 [Compound P-4109, [2-chloro-6-(cyclohexylamino)-3-pyridyl]-[4-(isopropylamino)-7H-pyrrolo[2,3-d]pyrimidin-5-yl]methanone]",> 10 µM,< 1 µM,> 10 µM,< 0.1 µM
"CNc1ncnc2[nH]cc(C(=O)c3ccc(NC4CCC(F)(F)CC4)nc3F)c12 [Compound P-4063, [6-[(4,4-difluorocyclohexyl)amino]-2-fluoro-3-pyridyl]-[4-(methylamino)-7H-pyrrolo[2,3-d]pyrimidin-5-yl]methanone]",> 10 µM,< 0.1 µM,> 10 µM,< 0.1 µM
"COc1ccc(Nc2ccc(C(=O)c3c[nH]c4ncnc(N5CCOCC5)c34)c(F)n2)cn1 [Compound P-4070, [2-fluoro-6-[(6-methoxy-3-pyridyl)amino]-3-pyridyl]-(4-morpholino-7H-pyrrolo[2,3-d]pyrimidin-5-yl)methanone]",> 10 µM,> 1 µM,> 10 µM,> 1 µM
"Clc1cnc2[nH]cc(Cc3cnc(Nc4ccccc4Cl)nc3)c2c1 [Compound P-3015, (2-Chloro-phenyl)-[5-(5-chloro-1H-pyrrolo[2,3-b]pyridin-3-ylmethyl)-pyrimidin-2-yl]-amine]",,> 10 µM,,< 1 µM
"Cc1ccc(Nc2ccc(C(=O)c3c[nH]c4ncnc(NCC5CC5)c34)c(F)n2)cn1 [Compound P-4113, [4-(cyclopropylmethylamino)-7H-pyrrolo[2,3-d]pyrimidin-5-yl]-[2-fluoro-6-[(6-methyl-3-pyridyl)amino]-3-pyridyl]methanone]",> 10 µM,,> 10 µM,< 0.01 µM
"CCCNc1ncnc2[nH]cc(C(=O)c3ccc(Nc4ccc(C)nc4)nc3F)c12 [Compound P-4114, [2-fluoro-6-[(6-methyl-3-pyridyl)amino]-3-pyridyl]-[4-(propylamino)-7H-pyrrolo[2,3-d]pyrimidin-5-yl]methanone]",> 10 µM,,> 10 µM,< 0.01 µM
"Fc1ccccc1Nc1ncc(Cc2c[nH]c3ncc(Cl)cc23)cn1 [Compound P-3014, [5-(5-Chloro-1H-pyrrolo[2,3-b]pyridin-3-ylmethyl)-pyrimidin-2-yl]-(2-fluoro-phenyl)-amine]",,> 10 µM,,< 0.1 µM
"CNc1ncnc2[nH]cc(C(=O)c3ccc(Nc4ccc(OC)nc4)nc3OC)c12 [Compound P-4085, [2-methoxy-6-[(6-methoxy-3-pyridyl)amino]-3-pyridyl]-[4-(methylamino)-7H-pyrrolo[2,3-d]pyrimidin-5-yl]methanone]",,,,< 1 µM
